ChEMBL document CHEMBL1201861, “Genomics of Drug Sensitity in Cancer screening data, Wellcome Trust Sanger Institute”

Key:
Assay in all cases: cells
COLO-679 = assay type: functional, cell-based; conditions: Homo sapiens
Description: SANGER: Inhibition of human COLO-679 cell growth in a cell viability assay.

KYSE-270 = assay type: functional, cell-based; conditions: Homo sapiens;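 further: cell growth inhibition measured with a viability assay in the human KYSE-270 line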
Description: SANGER: Inhibition of human KYSE-270 cell growth in a cell viability assay.

MCF7 = assay type: functional, cell-based; conditions: Homo sapiens;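 further: growth inhibition of human MCF7 cells, read out with a cell viability assay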
Description: SANGER: Inhibition of human MCF7 cell growth in a cell viability assay.

HCC1395 = assay type: functional, cell-based; conditions: Homo sapiens;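 further: growth inhibition of HCC1395 cells, read out by a cell viability assay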
Description: SANGER: Inhibition of human HCC1395 cell growth in a cell viability assay.

LK-2 = assay type: functional, cell-based; conditions: Homo sapiens;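 further: growth inhibition of LK-2 cells, read out with a viability assay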
Description: SANGER: Inhibition of human LK-2 cell growth in a cell viability assay.

NCI-H2170 = assay type: functional, cell-based; conditions: Homo sapiens;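 further: cell viability assay measuring growth inhibition of human NCI-H2170 cancer cells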
Description: SANGER: Inhibition of human NCI-H2170 cell growth in a cell viability assay.

SAS = assay type: functional, cell-based; conditions: Homo sapiens;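 further: growth inhibition of SAS cells, read out with a cell viability assay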
Description: SANGER: Inhibition of human SAS cell growth in a cell viability assay.

NCI-H2342 = assay type: functional, cell-based; conditions: Homo sapiens;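 further: growth inhibition of the cancer cell line, determined with a cell viability assay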
Description: SANGER: Inhibition of human NCI-H2342 cell growth in a cell viability assay.

HSC-2 = assay type: functional, cell-based; conditions: Homo sapiens;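 further: growth inhibition of human HSC-2 cells, read out by a cell viability assay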
Description: SANGER: Inhibition of human HSC-2 cell growth in a cell viability assay.

639-V = assay type: functional, cell-based; conditions: Homo sapiens;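 further: growth inhibition of 639-V cells, read out with a cell viability assay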
Description: SANGER: Inhibition of human 639-V cell growth in a cell viability assay.

RCM-1 = assay type: functional, cell-based; conditions: Homo sapiens;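 further: growth inhibition of the RCM-1 line, determined with a cell viability readout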
Description: SANGER: Inhibition of human RCM-1 cell growth in a cell viability assay.

NCI-H1792 = assay type: functional, cell-based; conditions: Homo sapiens;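 further: growth inhibition of human NCI-H1792 cells, read out as cell viability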
Description: SANGER: Inhibition of human NCI-H1792 cell growth in a cell viability assay.

EGI-1 = assay type: functional, cell-based; conditions: Homo sapiens;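 further: cell viability readout used to gauge growth inhibition of EGI-1 cells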
Description: SANGER: Inhibition of human EGI-1 cell growth in a cell viability assay.

A-427 = assay type: functional, cell-based; conditions: Homo sapiens;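 further: growth inhibition of human A-427 cells, read out by a cell viability assay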
Description: SANGER: Inhibition of human A427 cell growth in a cell viability assay.

MFE-280 = assay type: functional, cell-based; conditions: Homo sapiens;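 further: growth inhibition of MFE-280 cells, determined with a cell viability readout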
Description: SANGER: Inhibition of human MFE-280 cell growth in a cell viability assay.

OVCAR-5 = assay type: functional, cell-based; conditions: Homo sapiens;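 further: growth inhibition of human OVCAR-5 cells, read out with a cell viability assay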
Description: SANGER: Inhibition of human OVCAR-5 cell growth in a cell viability assay.

PA-1 = assay type: functional, cell-based; conditions: Homo sapiens;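 further: IC50 for suppression of PA-1 cell proliferation, determined with a cell viability read-out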
Description: SANGER: Inhibition of human PA-1 cell growth in a cell viability assay.

SW1088 = assay type: functional, cell-based; conditions: Homo sapiens;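 further: growth inhibition of human SW1088 cells, read out by a cell viability assay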
Description: SANGER: Inhibition of human SW1088 cell growth in a cell viability assay.

M14 = assay type: functional, cell-based; conditions: Homo sapiens;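 further: growth inhibition of M14 cells, read out with a cell viability assay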
Description: SANGER: Inhibition of human M14 cell growth in a cell viability assay.

MDA-MB-175-VII = assay type: functional, cell-based; conditions: Homo sapiens
NCI-H522 = assay type: functional, cell-based; conditions: Homo sapiens;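 further: cell viability assay measuring growth inhibition of human NCI-H522 cells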
Description: SANGER: Inhibition of human NCI-H522 cell growth in a cell viability assay.

SW48 = assay type: functional, cell-based; conditions: Homo sapiens;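 further: growth inhibition of SW48 cells, read out with a cell viability assay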
Description: SANGER: Inhibition of human SW48 cell growth in a cell viability assay.

PANC-08-13 = assay type: functional, cell-based; conditions: Homo sapiens;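 further: cell growth inhibition, measured with a cell viability assay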
Description: SANGER: Inhibition of human PANC-08-13 cell growth in a cell viability assay.

OVCAR-3 = assay type: functional, cell-based; conditions: Homo sapiens;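 further: growth inhibition of human OVCAR-3 cells, determined by a cell viability assay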
Description: SANGER: Inhibition of human OVCAR-3 cell growth in a cell viability assay.

SW1783 = assay type: functional, cell-based; conditions: Homo sapiens;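 further: cell growth inhibition measured with a viability assay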
Description: SANGER: Inhibition of human SW1783 cell growth in a cell viability assay.

MEL-HO = assay type: functional, cell-based; conditions: Homo sapiens
Description: SANGER: Inhibition of human MEL-HO cell growth in a cell viability assay.

SW780 = assay type: functional, cell-based; conditions: Homo sapiens;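 further: growth inhibition of the cells, read out with a cell viability assay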
Description: SANGER: Inhibition of human SW780 cell growth in a cell viability assay.

NCI-H810 = assay type: functional, cell-based; conditions: Homo sapiens;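 further: IC50 reflects inhibition of cancer cell line growth, read out with a cell viability assay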
Description: SANGER: Inhibition of human NCI-H810 cell growth in a cell viability assay.

SW1573 = assay type: functional, cell-based; conditions: Homo sapiens;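 further: growth inhibition of SW1573 cells, read out with a cell viability assay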
Description: SANGER: Inhibition of human SW1573 cell growth in a cell viability assay.

HuP-T3 = assay type: functional, cell-based; conditions: Homo sapiens;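 further: HuP-T3 cell growth inhibition, read out with a cell viability assay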
Description: SANGER: Inhibition of human HuP-T3 cell growth in a cell viability assay.

KU-19-19 = assay type: functional, cell-based; conditions: Homo sapiens
Description: SANGER: Inhibition of human KU-19-19 cell growth in a cell viability assay.

P12-Ichikawa = assay type: functional, cell-based; conditions: Homo sapiens
U-251 = assay type: functional, cell-based; conditions: Homo sapiens;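 further: growth inhibition of human U-251 cells, read out through a cell viability assay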
Description: SANGER: Inhibition of human U251 cell growth in a cell viability assay.

HCC1937 = assay type: functional, cell-based; conditions: Homo sapiens;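 further: growth inhibition measured with a cell viability read-out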
Description: SANGER: Inhibition of human HCC1937 cell growth in a cell viability assay.

CAL-62 = assay type: functional, cell-based; conditions: Homo sapiens;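 further: growth inhibition of CAL-62 cells, read out with a cell viability assay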
Description: SANGER: Inhibition of human CAL-62 cell growth in a cell viability assay.

KYSE-450 = assay type: functional, cell-based; conditions: Homo sapiens;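 further: cell growth inhibition measured by a viability assay in human KYSE-450 cells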
Description: SANGER: Inhibition of human KYSE-450 cell growth in a cell viability assay.

DK-MG = assay type: functional, cell-based; conditions: Homo sapiens;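 further: growth inhibition of DK-MG cells, read out with a cell viability assay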
Description: SANGER: Inhibition of human DK-MG cell growth in a cell viability assay.

NCI-H292 = assay type: functional, cell-based; conditions: Homo sapiens;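 further: growth inhibition of NCI-H292 cells, read out with a cell viability assay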
Description: SANGER: Inhibition of human NCI-H292 cell growth in a cell viability assay.

8305C = assay type: functional, cell-based; conditions: Homo sapiens
Description: SANGER: Inhibition of human 8305C cell growth in a cell viability assay.

SCC-4 = assay type: functional, cell-based; conditions: Homo sapiens;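 further: growth inhibition of human SCC-4 cells, read out as cell viability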
Description: SANGER: Inhibition of human SCC-4 cell growth in a cell viability assay.

NB7 = assay type: functional, cell-based, Homo sapiens; conditions: Homo sapiens, NB7;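 further: growth inhibition of NB7 cells, read out with a cell viability assay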
Description: SANGER: Inhibition of human NB7 cell growth in a cell viability assay.

ESS-1 = assay type: functional, cell-based; conditions: Homo sapiens;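 further: growth inhibition of human ESS-1 cells, read out by a cell viability assay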
Description: SANGER: Inhibition of human ESS-1 cell growth in a cell viability assay.

T84 = assay type: functional, cell-based; conditions: Homo sapiens;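 further: growth inhibition measured with a cell viability readout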
Description: SANGER: Inhibition of human T84 cell growth in a cell viability assay.

MHH-ES-1 = assay type: functional, cell-based; conditions: Homo sapiens;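 further: cell growth inhibition measured by a cell viability assay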
Description: SANGER: Inhibition of human MHH-ES-1 cell growth in a cell viability assay.

NCI-H2122 = assay type: functional, cell-based; conditions: Homo sapiens;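 further: growth inhibition of the cells, read out with a cell viability assay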
Description: SANGER: Inhibition of human NCI-H2122 cell growth in a cell viability assay.

CP50-MEL-B = assay type: functional, cell-based; conditions: Homo sapiens;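 further: growth inhibition of the human cell line, measured with a cell viability read-out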
Description: SANGER: Inhibition of human CP50-MEL-B cell growth in a cell viability assay.

CAKI-1 = assay type: functional, cell-based; conditions: Homo sapiens;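 further: growth inhibition of CAKI-1 cells, measured by a cell viability assay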
Description: SANGER: Inhibition of human CAKI-1 cell growth in a cell viability assay.

VMRC-RCZ = assay type: functional, cell-based; conditions: Homo sapiens;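 further: growth inhibition measured with a cell viability assay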
Description: SANGER: Inhibition of human VMRC-RCZ cell growth in a cell viability assay.

SMILES: NC1(c2ccc(-c3nc4ccn5c(=O)[nH]nc5c4cc3-c3ccccc3)cc2)CCC1 [MK-2206]
- IC50 (COLO-679): > 4000 nM
- IC50 (KYSE-270): > 4000 nM
- IC50 (MCF7): 2860 nM
- IC50 (HCC1395): 2750 nM
- IC50 (LK-2): > 4000 nM
- IC50 (NCI-H2170): > 4000 nM
- IC50 (SAS): > 4000 nM
- IC50 (NCI-H2342): > 4000 nM
- IC50 (HSC-2): > 4000 nM
- IC50 (639-V): > 4000 nM
- IC50 (RCM-1): > 4000 nM
- IC50 (NCI-H1792): > 4000 nM
- IC50 (EGI-1): > 4000 nM
- IC50 (A-427): > 4000 nM
- IC50 (MFE-280): 965 nM
- IC50 (OVCAR-5): > 4000 nM
- IC50 (PA-1): 1350 nM
- IC50 (SW1088): 1950 nM
- IC50 (M14): > 4000 nM
- IC50 (MDA-MB-175-VII): 137 nM
- IC50 (NCI-H522): > 4000 nM
- IC50 (SW48): > 4000 nM
- IC50 (PANC-08-13): > 4000 nM
- IC50 (OVCAR-3): 3410 nM
- IC50 (SW1783): > 4000 nM
- IC50 (MEL-HO): > 4000 nM
- IC50 (SW780): > 4000 nM
- IC50 (NCI-H810): > 4000 nM
- IC50 (SW1573): > 4000 nM
- IC50 (HuP-T3): > 4000 nM
- IC50 (KU-19-19): > 4000 nM
- IC50 (P12-Ichikawa): 116 nM
- IC50 (U-251): > 4000 nM
- IC50 (HCC1937): > 4000 nM
- IC50 (CAL-62): > 4000 nM
- IC50 (KYSE-450): > 4000 nM
- IC50 (DK-MG): > 4000 nM
- IC50 (NCI-H292): > 4000 nM
- IC50 (8305C): > 4000 nM
- IC50 (SCC-4): > 4000 nM
- IC50 (NB7): 824 nM
- IC50 (ESS-1): > 4000 nM
- IC50 (T84): > 4000 nM
- IC50 (MHH-ES-1): > 4000 nM
- IC50 (NCI-H2122): > 4000 nM
- IC50 (CP50-MEL-B): > 4000 nM
- IC50 (CAKI-1): > 4000 nM
- IC50 (VMRC-RCZ): > 4000 nM

SMILES: CC1(C)CCC(c2ccc(Cl)cc2)=C(CN2CCN(c3ccc(C(=O)NS(=O)(=O)c4ccc(N[C@H](CCN5CCOCC5)CSc5ccccc5)c(S(=O)(=O)C(F)(F)F)c4)cc3)CC2)C1 [NAVITOCLAX]
- IC50 (COLO-679): > 2000 nM
- IC50 (KYSE-270): > 2000 nM
- IC50 (MCF7): > 2000 nM
- IC50 (HCC1395): > 2000 nM
- IC50 (LK-2): > 2000 nM
- IC50 (NCI-H2170): 1060 nM
- IC50 (SAS): > 2000 nM
- IC50 (NCI-H2342): 1400 nM
- IC50 (HSC-2): > 2000 nM
- IC50 (639-V): > 2000 nM
- IC50 (RCM-1): > 2000 nM
- IC50 (NCI-H1792): > 2000 nM
- IC50 (EGI-1): > 2000 nM
- IC50 (A-427): 930 nM
- IC50 (MFE-280): > 2000 nM
- IC50 (OVCAR-5): > 2000 nM
- IC50 (PA-1): 956 nM
- IC50 (SW1088): > 2000 nM
- IC50 (M14): > 2000 nM
- IC50 (MDA-MB-175-VII): > 2000 nM
- IC50 (NCI-H522): > 2000 nM
- IC50 (SW48): > 2000 nM
- IC50 (PANC-08-13): > 2000 nM
- IC50 (OVCAR-3): > 2000 nM
- IC50 (SW1783): > 2000 nM
- IC50 (MEL-HO): > 2000 nM
- IC50 (SW780): > 2000 nM
- IC50 (NCI-H810): > 2000 nM
- IC50 (SW1573): > 2000 nM
- IC50 (HuP-T3): > 2000 nM
- IC50 (KU-19-19): > 2000 nM
- IC50 (P12-Ichikawa): 77.8 nM
- IC50 (U-251): > 2000 nM
- IC50 (HCC1937): > 2000 nM
- IC50 (CAL-62): > 2000 nM
- IC50 (KYSE-450): > 2000 nM
- IC50 (DK-MG): > 2000 nM
- IC50 (NCI-H292): > 2000 nM
- IC50 (8305C): > 2000 nM
- IC50 (SCC-4): 1600 nM
- IC50 (NB7): > 2000 nM
- IC50 (ESS-1): > 2000 nM
- IC50 (T84): > 2000 nM
- IC50 (MHH-ES-1): > 2000 nM
- IC50 (NCI-H2122): > 2000 nM
- IC50 (CP50-MEL-B): > 2000 nM
- IC50 (CAKI-1): > 2000 nM
- IC50 (VMRC-RCZ): > 2000 nM

SMILES: CS(=O)(=O)N1CCN(Cc2cc3nc(-c4cccc5[nH]ncc45)nc(N4CCOCC4)c3s2)CC1 [PICTILISIB]
- IC50 (COLO-679): > 4000 nM
- IC50 (KYSE-270): 1300 nM
- IC50 (MCF7): 899 nM
- IC50 (HCC1395): > 4000 nM
- IC50 (LK-2): > 4000 nM
- IC50 (NCI-H2170): > 4000 nM
- IC50 (SAS): > 4000 nM
- IC50 (NCI-H2342): > 4000 nM
- IC50 (HSC-2): > 4000 nM
- IC50 (639-V): 1500 nM
- IC50 (RCM-1): > 4000 nM
- IC50 (NCI-H1792): > 4000 nM
- IC50 (EGI-1): 1850 nM
- IC50 (A-427): > 4000 nM
- IC50 (MFE-280): 418 nM
- IC50 (OVCAR-5): 940 nM
- IC50 (PA-1): 532 nM
- IC50 (SW1088): 2490 nM
- IC50 (M14): 3310 nM
- IC50 (MDA-MB-175-VII): 353 nM
- IC50 (NCI-H522): > 4000 nM
- IC50 (SW48): > 4000 nM
- IC50 (PANC-08-13): > 4000 nM
- IC50 (OVCAR-3): > 4000 nM
- IC50 (SW1783): > 4000 nM
- IC50 (MEL-HO): 2680 nM
- IC50 (SW780): > 4000 nM
- IC50 (NCI-H810): > 4000 nM
- IC50 (SW1573): 3750 nM
- IC50 (HuP-T3): > 4000 nM
- IC50 (KU-19-19): 516 nM
- IC50 (P12-Ichikawa): > 4000 nM
- IC50 (U-251): > 4000 nM
- IC50 (HCC1937): > 4000 nM
- IC50 (CAL-62): > 4000 nM
- IC50 (KYSE-450): > 4000 nM
- IC50 (DK-MG): > 4000 nM
- IC50 (NCI-H292): 974 nM
- IC50 (8305C): > 4000 nM
- IC50 (SCC-4): > 4000 nM
- IC50 (NB7): 390 nM
- IC50 (ESS-1): > 4000 nM
- IC50 (T84): > 4000 nM
- IC50 (MHH-ES-1): > 4000 nM
- IC50 (NCI-H2122): > 4000 nM
- IC50 (CP50-MEL-B): > 4000 nM
- IC50 (CAKI-1): > 4000 nM
- IC50 (VMRC-RCZ): > 4000 nM
